Assay [1] has as its system Drosophila melanogaster RyR M4758I. Description: Bioassay of gene-edited Drosophila melanogaster (feeding, mortality after 24 h). The class given is in vivo. Conditions: 24 h.
For assay [2], the system named is Drosophila melanogaster RyR G4915E. The assay is described as above. Format: in vivo. Conditions: 24 h.

“And” between values parts separate entries of the source, which are not always exact repeats. Equal values may be shown once.

With `Cc1cc(C(F)(C(F)(F)F)C(F)(F)F)ccc1NC(=O)c1cccc(I)c1C(=O)NC(C)(C)CS(C)(=O)=O` [FLU, flubendiamide], the death rate in assay [1] (FLU 0.033 uM) was 0%; in assay [1] (FLU 0.100 uM), 0% and 10%; in assay [1] (FLU 0.333 uM) it was 10%; in assay [1] (FLU 1.000 uM) it was 10% and 20%; in assay [1] (FLU 3.333 uM), 20% and 30%; in assay [1] (FLU 10.000 uM) it was 50%. Moreover, the death rate in assay [1] (FLU 33.333 uM) was 60% and 70%; in assay [1] (FLU 100.000 uM), 100%; in assay [1] (FLU 333.333 uM) it was 100%; in assay [2] (FLU 1.000 uM) it was 0%; in assay [2] (FLU 3.333 uM), 0%; in assay [2] (FLU 10.000 uM), 0%. For the same molecule, the death rate in assay [2] (FLU 33.333 uM), in assay [2] (FLU 100.000 uM) and in assay [2] (FLU 333.333 uM) was 0% each time.

The values are drawn from PMC11491487 (Nature Communications, 2024).
